Assay results published in patent publication US10202388B2, “Fused-ring compounds, pharmaceutical composition and uses thereof” (SHANGHAI DE NOVO PHARMATECH CO., LTD., priority 2015, dated 2019).

What was measured:
[1] = target: HeLa cell IDO1 (Homo sapiens (Human), UniProt P14902); test: HeLa cell based IDO1 inhibition assay (kynurenine readout, IFN-γ induced); settings: HeLa cells
Protocol: HeLa cell line was purchased from ATCC, cultured in MEM/EBSS medium supplemented with 10% FBS, penn-step (100,000 U/L), non-essential amino acid (0.1 Mm), sodium pyruvate (1.0 Mm). Cells were cultured at 37° C., 95% humidity and 5% CO2. […] The detailed experimental method is as follow:
25,000 HeLa cells were placed on 96-well plates. Each well contained 100 μl culture medium, subsequently IFN-γ and test compounds at specific concentrations (concentration range between 10 μM and 1 Nm, so that the final volume of culture medium was 200 μL) were added and IFN-γ was used to induce IDO1 expression. After incubation, 140 μL supernatant was transferred to 96-well plates. After adding 6.1 N TCA (10 μL), the plates were continuously incubated at 50° C. for 30 min, to hydrolyze N-formylkynurenine produced by IDO to kynurenine. The reaction solution was then centrifuged at 2500 rpm for 10 min to remove precipitate. 100 μL/well supernatant was then transferred to another 96-well plate. 100 μL of 2% (w/v) 4-N,N-dimethyl aminobenzaldehyde acetic acid solution was added and incubated at room temperature for 10 min. The yellow color derived from kynurenine was recorded by measuring absorbance at 480 nm using a microplate reader (TECAN Infinite M1000 Pro).

[2] = target: recombinant TDO2 (Homo sapiens (Human), UniProt P48775); test: TDO2 enzymatic assay (UV absorption at 321 nm); format: biochemical; settings: 50 nM TDO2, 200 μM tryptophan, 75 min
Chain of recombinant TDO2 (P48775 whole entry, species assumed): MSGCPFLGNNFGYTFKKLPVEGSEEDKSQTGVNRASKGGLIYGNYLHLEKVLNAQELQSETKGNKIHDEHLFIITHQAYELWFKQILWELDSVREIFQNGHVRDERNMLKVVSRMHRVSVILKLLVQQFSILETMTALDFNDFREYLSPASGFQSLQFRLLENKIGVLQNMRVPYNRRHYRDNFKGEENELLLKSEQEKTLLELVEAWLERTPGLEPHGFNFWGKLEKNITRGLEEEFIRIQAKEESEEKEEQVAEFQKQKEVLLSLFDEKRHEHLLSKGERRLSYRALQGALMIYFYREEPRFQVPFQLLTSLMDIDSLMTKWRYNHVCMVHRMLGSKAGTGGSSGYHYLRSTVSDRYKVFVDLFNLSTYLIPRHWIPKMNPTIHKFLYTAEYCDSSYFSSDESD
Protocol: The TDO2 enzymatic assay was performed by UV absorption using a recombinant TDO2 and L-Tryptophan substrate. The UV absorption signal at 321 nm is correlated with the amount of N-formylkynurenine reaction product of TDO2. The compounds were diluted in 10% DMSO and 5 μL of the dilution was added to a 100 μL reaction so that the final concentration of DMSO is 0.5% in all of reactions. All of the reactions were conducted at room temperature. The 100 μL reaction mixture in TDO2 Assay Buffer contains 50 nM TDO2, the indicated amount of the inhibitor, 200 μM tryptophan, and the coupled reaction components. The reaction mixture incubated for 75 min prior to reading the UV absorption signal. For the negative control (blank), 5 μl of the assay buffer was added instead of the TDO2.
(§1) Absorption signals were measured using a Tecan Infinite M1000 plate reader. Binding experiments were performed in duplicate at each concentration. The percent activity in the presence of each compound was calculated according to the following equation: % activity=[(A−Ab)/(At−Ab)]×100, where A=the absorption signal in the presence of the compound, Ab=the absorption signal of blank, At=the absorption signal in the absence of the compound. […] The IC50 was calculated using non-linear regression in Graph Pad Prism® 4.

[3] = target: Human recombinant IDO1 (Homo sapiens (Human), UniProt P14902); test: IDO1 enzymatic assay (UV absorption at 321 nm); format: biochemical; settings: human recombinant IDO1, 80 min incubation, room temperature; read-out: hIDO1 IC50
Chain of Human recombinant IDO1 (P14902 whole entry): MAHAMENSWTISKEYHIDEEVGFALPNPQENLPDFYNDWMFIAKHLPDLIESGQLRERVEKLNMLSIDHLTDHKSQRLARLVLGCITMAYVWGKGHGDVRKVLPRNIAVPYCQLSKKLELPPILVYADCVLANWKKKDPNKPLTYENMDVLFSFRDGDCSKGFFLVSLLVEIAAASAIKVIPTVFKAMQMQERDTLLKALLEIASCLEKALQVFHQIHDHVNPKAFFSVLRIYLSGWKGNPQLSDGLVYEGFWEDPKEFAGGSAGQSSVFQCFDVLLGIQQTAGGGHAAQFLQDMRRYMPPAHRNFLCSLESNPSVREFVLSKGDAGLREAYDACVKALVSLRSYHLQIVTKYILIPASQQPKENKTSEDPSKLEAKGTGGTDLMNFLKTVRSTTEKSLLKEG
Protocol: The detailed experimental method is as follow:
The compounds described in this disclosure were dissolved in 10% DMSO to predefined concentration. All of the reactions were conducted at room temperature in this disclosure. Human recombinant IDO1 (BPS Bioscience) was added so that its concentration was 200 nm in the reaction buffer solution (200 μL). […] 10 μL test compound solution was added into the above reaction solution (200 μL), so that the final concentration of DMSO in all reaction wells was 0.5%. % concentration was volume %. After 80 min incubation of the reaction solution, the UV absorbance was measured using TECAN Infinite M1000 plate reader. For the negative control (blank), 10 μl of the assay buffer was added instead of the IDO1
All reagents (excluding human recombinant IDO1) were purchased from Sigma Aldrich, MO, USA.
as §1, with “The” for “Absorption signals were measured using a Tecan Infinite M1000 plate reader. Binding experiments were performed in duplicate at each concentration. The”

[4] = test system: colon cancer MC38 cells; test: Subcutaneous MC38 mouse colon cancer syngeneic model in C57BL/6 mice; format: in vivo; settings: single agent, s.c. MC38 tumors in female C57BL/6 mice, FIG. 1
Protocol: Female mice (C57BL/6, 6-8 week old) were purchased from Shanghai Laboratory Animal Center, Chinese Academy of Sciences, Shanghai, China. Mice were housed under pathogen-free conditions with autoclaved rodent chow and water available ad libitum. Each mouse was inoculated s.c. with colon cancer MC38 cells in 0.1 mL PBS over the right lower flank. When the tumor volume reached 40 mm^3, mice were randomized based on initial tumor volume measurements and treated with either vehicle or compound 23A-3. Tumor volumes were measured with electronic digital caliper and calculated using the formula length (mm)×width (mm)^2/2 and expressed in mm^3. Student's t-test was used to evaluate the statistical significance of observed differences.

Chain of HeLa cell IDO1 (P14902 whole entry): as above

## OC1C2CC3CC1CC([C@@H](O)CC1c4c(F)cccc4-c4cncn41)(C3)C2 (stereo partly shown) [Compound 23A-3]
[1]
  IC50: < 0.1 µM
[2]
  IC50: < 0.5 µM
[3]
  IC50: < 0.1 µM
[4]
  tumor growth inhibition (mean tumor volume versus dosing days): significant tumor growth inhibition effect
